Laboratory results taken from patent publication US8138194B2, “Fused bicyclic pyrimidine compounds as aurora kinase inhibitors” (National Health Research Institutes, priority 2008, dated 2012).
Several values for one entry are separate records, joined by “and”; a condition that tells them apart may be missing. Equal values may be shown once.

Key:
PLK4 = target: T1, PLK4 (Homo sapiens, UniProt O00444); assay: Inhibition of other protein kinases: PLK4; type: biochemical
T1 sequence (O00444 1-970): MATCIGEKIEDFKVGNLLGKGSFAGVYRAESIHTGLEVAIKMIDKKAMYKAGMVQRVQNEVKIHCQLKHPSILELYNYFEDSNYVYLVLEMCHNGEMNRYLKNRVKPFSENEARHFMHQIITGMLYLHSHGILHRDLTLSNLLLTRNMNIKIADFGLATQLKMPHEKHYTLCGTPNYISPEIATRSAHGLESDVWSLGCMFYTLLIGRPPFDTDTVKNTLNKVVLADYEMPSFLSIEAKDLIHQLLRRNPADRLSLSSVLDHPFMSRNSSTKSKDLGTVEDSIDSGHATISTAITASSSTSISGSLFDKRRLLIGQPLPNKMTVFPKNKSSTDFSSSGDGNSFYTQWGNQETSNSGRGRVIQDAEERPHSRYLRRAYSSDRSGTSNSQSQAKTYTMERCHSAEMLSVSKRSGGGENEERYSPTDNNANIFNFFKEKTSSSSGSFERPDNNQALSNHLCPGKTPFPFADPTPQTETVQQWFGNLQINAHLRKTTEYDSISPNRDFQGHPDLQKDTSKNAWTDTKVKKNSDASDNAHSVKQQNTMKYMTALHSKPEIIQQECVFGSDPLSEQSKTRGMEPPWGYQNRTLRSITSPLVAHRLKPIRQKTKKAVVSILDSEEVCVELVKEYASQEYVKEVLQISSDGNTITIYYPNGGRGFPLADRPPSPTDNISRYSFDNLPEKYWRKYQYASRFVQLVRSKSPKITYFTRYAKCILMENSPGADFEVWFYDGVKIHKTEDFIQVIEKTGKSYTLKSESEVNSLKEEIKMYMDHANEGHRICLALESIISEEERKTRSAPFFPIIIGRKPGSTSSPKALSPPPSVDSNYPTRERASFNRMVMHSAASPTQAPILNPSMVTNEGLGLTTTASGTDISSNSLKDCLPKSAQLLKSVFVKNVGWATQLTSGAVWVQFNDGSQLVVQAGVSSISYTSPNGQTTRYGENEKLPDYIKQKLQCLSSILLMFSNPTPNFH

HCT-116 cells = assay: HCT-116 cell viability MTS assay; type: cell-based; conditions: Homo sapiens, read-out: IC50 (concentration of a test compound which causes 50% of the cell death); HCT-116, 96-h incubation, MTS
Procedure: HCT-116 cell viability was examined by the MTS assay (Promega, Madison, Wis., USA). 2000 HCT-116 cells in 100 μL McCoy's 5a medium were seeded in each well of a 96-well plate. After 96-h incubation with a test compound, the cells were incubated with 20 μL of a MTS/PMS mixture (MTS/PMS ratio: 20: 1) for 2 h at 37° C. in a humidified incubator with 5% CO2 to allow viable cells to convert the tetrazolium salt (MTS) into formazan. The amount/concentration of formazan, which indicates the number of live cells, was determined by measuring the absorbance at 490 nm using a PerkinElmer Victor2 plate reader (PerkinElmer, Shelton, Cont., USA).

PDGFRB = PDGFRB (Homo sapiens, UniProt P09619); assay: Inhibition of other protein kinases: PDGFRB; type: biochemical
[1] = target: T2, GST-tAurora A (123-401aa) fusion protein (Homo sapiens, UniProt O14965); assay: Aurora Kinase A luminescent kinase assay; type: biochemical; conditions: IC50 (concentration of a test compound at which activity of 50% of Aurora A is inhibited)
T2 construct: GST-tAurora A (123-401aa) fusion protein; made in house; host or cells: Sf9 insect cells (baculovirus, pBacPAK8)
T2 sequence (O14965 123-401): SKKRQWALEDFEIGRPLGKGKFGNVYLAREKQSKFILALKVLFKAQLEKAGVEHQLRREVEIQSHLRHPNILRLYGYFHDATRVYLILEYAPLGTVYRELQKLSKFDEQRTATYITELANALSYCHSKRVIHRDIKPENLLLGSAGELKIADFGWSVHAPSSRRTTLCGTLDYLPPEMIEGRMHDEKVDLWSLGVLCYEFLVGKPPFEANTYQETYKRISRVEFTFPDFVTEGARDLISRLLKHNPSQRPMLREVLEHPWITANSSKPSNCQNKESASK

FLT3 = target: T3, FLT3 (Homo sapiens, UniProt P36888); assay: Inhibition of other protein kinases: FLT3; type: biochemical
T3 sequence (P36888 27-993): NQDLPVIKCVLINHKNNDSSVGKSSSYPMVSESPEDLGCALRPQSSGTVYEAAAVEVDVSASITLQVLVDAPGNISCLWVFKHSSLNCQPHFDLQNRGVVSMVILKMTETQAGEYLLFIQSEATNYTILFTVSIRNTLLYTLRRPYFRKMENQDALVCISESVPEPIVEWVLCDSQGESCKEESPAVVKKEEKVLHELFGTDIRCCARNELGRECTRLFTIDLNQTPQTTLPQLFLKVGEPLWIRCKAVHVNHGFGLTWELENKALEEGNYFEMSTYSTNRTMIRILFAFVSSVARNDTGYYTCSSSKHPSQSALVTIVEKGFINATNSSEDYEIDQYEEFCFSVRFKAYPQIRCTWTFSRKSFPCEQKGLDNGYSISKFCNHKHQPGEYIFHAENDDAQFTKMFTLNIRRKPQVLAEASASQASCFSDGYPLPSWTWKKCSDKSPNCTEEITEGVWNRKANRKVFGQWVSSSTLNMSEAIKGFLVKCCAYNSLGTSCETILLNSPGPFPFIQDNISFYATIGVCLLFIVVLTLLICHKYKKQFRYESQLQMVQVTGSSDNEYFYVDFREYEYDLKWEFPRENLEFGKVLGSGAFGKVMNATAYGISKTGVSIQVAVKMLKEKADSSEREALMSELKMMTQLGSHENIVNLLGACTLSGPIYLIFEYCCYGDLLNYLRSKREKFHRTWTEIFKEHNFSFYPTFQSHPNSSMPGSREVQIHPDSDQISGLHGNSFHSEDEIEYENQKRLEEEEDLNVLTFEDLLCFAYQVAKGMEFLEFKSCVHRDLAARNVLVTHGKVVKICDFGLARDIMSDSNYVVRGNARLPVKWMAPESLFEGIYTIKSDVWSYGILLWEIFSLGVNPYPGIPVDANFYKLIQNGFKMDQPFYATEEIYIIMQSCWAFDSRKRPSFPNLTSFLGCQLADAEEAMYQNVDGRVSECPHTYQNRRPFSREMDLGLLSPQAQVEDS

Chain of PDGFRB (P09619 33-1106, species assumed): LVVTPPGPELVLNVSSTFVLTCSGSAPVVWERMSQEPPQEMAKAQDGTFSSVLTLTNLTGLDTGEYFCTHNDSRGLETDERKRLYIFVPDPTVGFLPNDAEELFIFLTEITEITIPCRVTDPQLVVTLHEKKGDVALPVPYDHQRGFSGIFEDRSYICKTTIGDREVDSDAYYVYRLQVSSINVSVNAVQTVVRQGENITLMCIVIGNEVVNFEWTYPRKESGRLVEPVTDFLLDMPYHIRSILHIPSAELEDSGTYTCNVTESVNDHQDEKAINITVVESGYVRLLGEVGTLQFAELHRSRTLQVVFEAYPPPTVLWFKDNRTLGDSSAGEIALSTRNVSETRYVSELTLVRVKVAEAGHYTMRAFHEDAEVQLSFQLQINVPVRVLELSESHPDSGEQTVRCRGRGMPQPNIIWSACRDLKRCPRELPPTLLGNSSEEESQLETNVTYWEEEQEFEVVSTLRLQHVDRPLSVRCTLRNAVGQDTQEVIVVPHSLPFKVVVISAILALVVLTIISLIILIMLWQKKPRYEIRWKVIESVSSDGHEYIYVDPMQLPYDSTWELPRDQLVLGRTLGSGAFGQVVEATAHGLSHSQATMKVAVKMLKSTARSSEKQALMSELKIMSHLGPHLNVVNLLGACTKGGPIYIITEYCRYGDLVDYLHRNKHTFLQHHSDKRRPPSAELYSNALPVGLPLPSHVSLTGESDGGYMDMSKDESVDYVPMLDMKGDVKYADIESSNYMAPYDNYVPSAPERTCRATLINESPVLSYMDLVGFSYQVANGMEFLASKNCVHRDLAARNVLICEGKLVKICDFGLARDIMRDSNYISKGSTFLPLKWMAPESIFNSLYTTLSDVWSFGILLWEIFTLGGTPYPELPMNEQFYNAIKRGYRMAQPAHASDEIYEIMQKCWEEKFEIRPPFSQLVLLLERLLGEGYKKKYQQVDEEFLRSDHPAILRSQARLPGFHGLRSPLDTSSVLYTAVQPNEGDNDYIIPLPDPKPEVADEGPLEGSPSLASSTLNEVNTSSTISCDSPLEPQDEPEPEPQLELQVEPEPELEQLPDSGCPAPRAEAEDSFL

inhibits the activity of PLK4 (PLK4): inhibits | inhibits the activity of PDGFRB (PDGFRB): inhibits | IC50 [1]: 0.045 to 0.4 µM and < 1 µM | inhibits the activity of FLT3 (FLT3): inhibits
Structure (SMILES): O=C(Nc1ccccc1)Nc1ccc(CCNc2ncnc3oc(-c4ccccc4)c(Cl)c23)cc1 [Compound 82]
IC50 (HCT-116 cells): 0.1 to 0.9 µM
